We go through two molecules from publication PMC9800739, “Epigenetic drugs in somatostatin type 2 receptor radionuclide theranostics and radiation transcriptomics in mouse pheochromocytoma models” (Theranostics, 2023).

Data set [1] addresses T1, SSTR2 (Mus musculus, UniProt P30875).
T1 construct: endogenous in cells; host or cells: MPC and MTT mouse pheochromocytoma cells (cell homogenates), untreated or treated with VPA + DAC
As to the kind of experiment: Immunoblotting of SSTR2 in cells after epigenetic treatment. The format is cell-based. How it is done:
Cells were seeded into collagen-coated microplates or collagen-coated flasks 24 h before epigenetic treatment (ET) start and treated twice (24 h interval) with VPA and DAC, as single and combination doses, respectively. Treatment effects were investigated two to six days (d) after final ET. Preparation of epigenetic drugs is reported in Supplemental Information 1.1.
Cells seeded into collagen-coated flasks (2.5×10^4/cm^2) were harvested three days after treatment start by incubation with Dulbecco's phosphate-buffered saline containing 2 mmol/L EDTA at 4 °C. Cell pellets were frozen and stored at -70°C. Frozen tumor tissue obtained from allograft mice was cut into 4 × 4 mm pieces.
Protein extraction from cells and tissues, gel electrophoresis, and immunoblotting was performed as described previously with some modifications. In brief, tissue homogenization was performed using the gentleMACS™ dissociator (Miltenyi Biotech, Bergisch Gladbach, Germany). Immunodetection of proteins was performed using the recombinant primary antibodies anti-SSTR2 [UMB1] (Abcam, Cambridge, UK), anti-CHGA [C-20] (Santa Cruz Biotechnology, Heidelberg, Germany), and anti-ACTB [A5316] (Sigma-Aldrich). Densitometric analysis of protein bands was performed using ImageQuant TL (GE Healthcare, Chicago, IL, USA).
On the technique in general: A western blot detects proteins with antibodies after separation by electrophoresis.

Data set [2] has as its system MPC tumors. As to the kind of experiment: Tumor growth of MPC allografts. Type of data set: in vivo, mouse. Particulars: PET cohorts; for Vtumor, ET start: day 0 baseline, mean ± SEM; for Vtumor, ET start + 4 d: day 4, mean ± SEM. The procedure: (§1) During anesthesia, animals were continuously warmed at 37°C. […] Animals were sacrificed using CO2 inhalation and cervical dislocation. […]
(§2) 70 1.1 Preparation of epigenetic drugs
(§3) 71 For in vitro application, VPA was freshly dissolved in cell culture medium and added to the
(§4) 72 cells at final concentrations between 10‒5 and 10‒2 mol/L. DAC was dissolved in H2O to obtain
(§5) 73 a 10‒4 mol/L stock solution that was stored at ‒20 °C. For each experiment, aliquots of the DAC
(§6) 74 stock were thawed and added to the cells at final concentrations between 10‒8 and 10‒5 mol/L.
(§7) 75 For in vivo application, VPA was dissolved at 0.26 mol/L in Dulbecco’s phosphate-buffered
(§8) 76 saline. DAC was dissolved at 0.04 mol/L in acetic acid (9.6 mol/L) to obtain a stock solution
(§9) 77 that was further diluted to 6.6×10‒4 mol/L in Dulbecco’s phosphate buffered. […]
(§10) 88 1.3 Tumor volumes in animal cohorts
(§11) 89 Animals with higher initial tumor volume were specifically included in cohorts that received
(§12) 90 epigenetic drugs in order to compensate for the growth-reducing effects of ET and to match
(§13) 91 tumor volumes as closely as possible across cohorts at the time of radiopharmaceutical injection

For data set [3], the system named is MTT tumors. Briefly: Tumor growth of MTT allografts. Type of data set: in vivo, mouse. The conditions noted are these: PET cohorts; for Vtumor, ET start: day 0 baseline, mean ± SEM; for Vtumor, ET start + 4 d: day 4, mean ± SEM. The procedure: as §1, §2, §3, §4, §5, §6, §7, §8, §9, §10, §11, §12, §13
The test system of data set [4] is MPC and MTT allograft mice. Briefly: Biodistribution / retention of [64Cu]Cu-DOTA-TATE. Type of data set: in vivo, mouse. Particulars: DAC-treated animals; no relationship with SUV changes in tumors. The procedure: Radiotracer was injected as described for PET imaging. Mice were sacrificed 60 min after radiotracer injection, organs were excised and weighted, and activity in tissue samples was measured using the gamma counter Wizard (PerkinElmer, Waltham, MA, USA). Standardized uptake values were determined.
107 (30%), muscle (0%), kidneys (25%), and liver (35%).
116 attenuation. Images were post-processed and analyzed using ROVER (ABX). Three-
118 kidneys (15%), and liver (25%).
119 1.6 Sstr2 promoter methylation analysis
122 Bisulfite Kit (Qiagen, Hilden, Germany). Bisulfite-converted DNA was amplified using a
Amplicon size (195bp) was confirmed
125 Switzerland). Electropherograms were compared to PCR products amplified from bisulfite-
127 an unmethylated 900bp-DNA fragment. The latter was generated by amplification of genomic
129 of primers are provided in (Table S 2).

Data set [5] deals with BON‑1 xenografts. More on the design: method as in PMID 27363833. The conditions noted are these: after treatment with DAC; cited from earlier work.
The conditions of data set [6]: intraperitoneal doses applied; cited from earlier work. The text has this: The estimated human equivalent doses corresponded to 20‒30% of the clinically applied tumor-suppressive doses in patients, [45]. Lower doses were used, since we focused on the epigenetic modulation effects rather than the cytotoxic effects of VPA and DAC.
For data set [7], the system named is SSTR2. The arrangement: method as in PMID 26211366. The conditions noted are these: neuroendocrine tumor models; cited from earlier work.

T1 sequence (P30875 whole entry): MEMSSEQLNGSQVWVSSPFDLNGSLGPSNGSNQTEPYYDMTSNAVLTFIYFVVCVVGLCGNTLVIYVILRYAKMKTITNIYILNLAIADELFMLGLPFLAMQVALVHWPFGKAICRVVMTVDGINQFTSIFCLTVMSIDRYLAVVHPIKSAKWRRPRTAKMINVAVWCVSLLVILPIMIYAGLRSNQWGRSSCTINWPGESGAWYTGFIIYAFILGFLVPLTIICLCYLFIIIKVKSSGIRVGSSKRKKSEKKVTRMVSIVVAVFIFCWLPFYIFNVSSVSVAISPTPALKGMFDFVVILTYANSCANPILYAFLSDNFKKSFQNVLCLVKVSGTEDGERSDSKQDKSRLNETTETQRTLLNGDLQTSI

On to `Nc1ncn([C@H]2C[C@H](O)[C@@H](CO)O2)c(=O)n1` [DAC, 5-Aza-2'-deoxycytidine], for which the “induction of SSTR2 protein levels and radiotracer uptake, comparison” value in data set [1] (MPC and MTT models) is on record as “more effectively compared to VPA”. The “SSTR2 up-regulation compared to controls (SSTR2/ACTB)” value in data set [1] (MPC cells, DAC 10^-6 mol/L, final ET + 2 d) came to 5.3 fold. In data set [2], the “Vtumor, ET start” value stood at 0.39 ± 0.16 cm3 and the “Vtumor, ET start + 4 d” value amounted to 0.57 ± 0.18 cm3. For the same molecule, in data set [3], the “Vtumor, ET start” value worked out at 0.23 ± 0.07 cm3 and the “Vtumor, ET start + 4 d” value is on record as 0.24 ± 0.06 cm3. Also, the “activity retention in the liver, effect” value in data set [4] was “significantly higher in DAC-treated animals”. Besides, the “increase in [68Ga]Ga-DOTA-TATE uptake” value in data set [5] is “approximately 2 fold”.

As to `CCCC(CCC)C(=O)O` [VPA, valproic acid], in data set [2], the “Vtumor, ET start” value stood at 0.27 ± 0.13 cm3 and the “Vtumor, ET start + 4 d” value amounted to 0.46 ± 0.23 cm3. Further, in data set [3], the “Vtumor, ET start” value came to 0.14 ± 0.05 cm3 and the “Vtumor, ET start + 4 d” value came out at 0.35 ± 0.05 cm3. Besides, in data set [6], the “time for serum levels to normalize (VPA)” value is reported as “eight”. The “SSTR2 stimulation (effect)” value in data set [7] is recorded as “stimulate SSTR2”.
